According to US20220242870A1, “HETEROCYCLE-FUSED PYRIMIDINE DERIVATIVE AND USE THEREOF” (VORONOI Inc., priority 2019, published 2022):

Experiments:
Experiment in all cases: scanMAX kinase assay panel
Format in all cases: binding
Conditions in all cases: read-out: control percentage (% control)
FLT3(N841I) = target: T1, FLT3(N841I) (Homo sapiens, UniProt P36888, N841I)
T1 construct: purchased DiscoverX scanMAX kinase assay panel
Procedure: (§1) The activities of the compounds according to the present invention to more diverse enzymes were evaluated. Specifically, it was decided that the enzyme selectivity of Example 74 selected from the compounds of Examples 1 to 129 was measured at the request of DiscoverX, and the experiment was conducted using a scanMAX™ kinase assay panel. At this time, as a drug to treat the enzyme, a solution prepared by dissolving in DMSO at a concentration of 1 μM was used, and the control percentage (% control) was determined by the method of Equation 1 below, and the results were shown in Table 2 below.
(§2) In Equation above, the positive control and negative control mean compounds showing control percentages of 0% and 100% as DMSO, respectively.

PIP5K2C = target: T2, PIP5K2C (Homo sapiens, UniProt Q8TBX8)
T2 construct: purchased DiscoverX scanMAX kinase assay panel
Procedure: as §1, §2

JNK2 = target: T3, JNK2 (Homo sapiens, UniProt P45984)
T3 construct: purchased DiscoverX scanMAX kinase assay panel
Procedure: as §1, §2

IRAK3 = target: T4, IRAK3 (Homo sapiens, UniProt Q9Y616)
T4 construct: purchased DiscoverX scanMAX kinase assay panel
Procedure: as §1, §2

BIKE = target: T5, BIKE (Homo sapiens, UniProt Q9NSY1)
T5 construct: purchased DiscoverX (scanMAX panel, contract assay)
Procedure: as §1, §2

RIOK3 = target: T6, RIOK3 (Homo sapiens, UniProt O14730)
T6 construct: purchased DiscoverX scanMAX kinase assay panel
Procedure: as §1, §2

JNK1 = target: T7, JNK1 (Homo sapiens, UniProt P45983)
T7 construct: purchased DiscoverX scanMAX kinase assay panel
Procedure: as §1, §2

GRK4 = target: T8, GRK4 (Homo sapiens, UniProt P32298)
T8 construct: purchased DiscoverX scanMAX kinase assay panel
Procedure: as §1, §2

LRRK2(G2019S) = target: T9, LRRK2(G2019S) (Homo sapiens, UniProt Q5S007, G2019S)
T9 construct: purchased DiscoverX scanMAX kinase assay panel
Procedure: as §1, §2

RIOK1 = target: T10, RIOK1 (Homo sapiens, UniProt Q9BRS2)
T10 construct: purchased DiscoverX scanMAX kinase assay panel
Procedure: as §1, §2

MAP3K3 = target: T11, MAP3K3 (Homo sapiens, UniProt Q99759)
T11 construct: purchased DiscoverX scanMAX kinase assay panel
Procedure: as §1, §2

MELK = target: T12, MELK (Homo sapiens, UniProt Q14680)
T12 construct: purchased DiscoverX scanMAX kinase assay panel
Procedure: as §1, §2

ULK3 = target: T13, ULK3 (Homo sapiens, UniProt Q6PHR2)
T13 construct: purchased DiscoverX
Procedure: as §1, §2

TRKA = target: T14, TRKA (Homo sapiens, UniProt P04629)
T14 construct: purchased DiscoverX
Procedure: as §1, §2

ALK = target: T15, ALK (Homo sapiens, UniProt Q9UM73)
T15 construct: purchased DiscoverX (scanMAX panel, contract assay)
Procedure: as §1, §2

MAP4K3 = target: T16, MAP4K3 (Homo sapiens, UniProt Q8IVH8)
T16 construct: purchased DiscoverX scanMAX kinase assay panel
Procedure: as §1, §2

[1] = target: T17, ABL1(Q252H)-nonphosphorylated (Homo sapiens, UniProt P00519, Q252H)
T17 construct: purchased DiscoverX (scanMAX panel, contract assay)
Procedure: as §1, §2

BLK = target: T18, BLK (Homo sapiens, UniProt P51451)
T18 construct: purchased DiscoverX (scanMAX panel, contract assay)
Procedure: as §1, §2

KIT(L576P) = target: T19, KIT(L576P) (Homo sapiens, UniProt P10721, L576P)
T19 construct: purchased DiscoverX scanMAX kinase assay panel
Procedure: as §1, §2

RET = target: T20, RET (Homo sapiens, UniProt P07949)
T20 construct: purchased DiscoverX scanMAX kinase assay panel
Procedure: as §1, §2

FLT3(D835H) = target: T21, FLT3(D835H) (Homo sapiens, UniProt P36888, D835H)
T21 construct: purchased DiscoverX scanMAX kinase assay panel
Procedure: as §1, §2

[2] = target: T22, JAK3(JH1domain-catalytic) (Homo sapiens, UniProt P52333)
T22 construct: JAK3(JH1domain-catalytic); purchased DiscoverX scanMAX kinase assay panel
Procedure: as §1, §2

RET(M918T) = target: T23, RET(M918T) (Homo sapiens, UniProt P07949, M918T)
T23 construct: purchased DiscoverX scanMAX kinase assay panel
Procedure: as §1, §2

[3] = target: T24, JAK2(JH1domain-catalytic) (Homo sapiens, UniProt O60674)
T24 construct: JAK2(JH1 domain-catalytic); purchased DiscoverX scanMAX kinase assay panel
Procedure: as §1, §2

CDK7 = target: T25, CDK7 (Homo sapiens, UniProt P50613)
T25 construct: purchased DiscoverX (scanMAX panel, contract assay)
Procedure: as §1, §2

HPK1 = target: T26, HPK1 (Homo sapiens, UniProt Q92918)
T26 construct: purchased DiscoverX scanMAX kinase assay panel
Procedure: as §1, §2

PRP4 = target: T27, PRP4 (Homo sapiens, UniProt Q13523)
T27 construct: purchased DiscoverX scanMAX kinase assay panel
Procedure: as §1, §2

ITK = target: T28, ITK (Homo sapiens, UniProt Q08881)
T28 construct: purchased DiscoverX scanMAX kinase assay panel
Procedure: as §1, §2

MERTK = target: T29, MERTK (Homo sapiens, UniProt Q12866)
T29 construct: purchased DiscoverX scanMAX kinase assay panel
Procedure: as §1, §2

[4] = target: T30, ABL1(T315I)-phosphoryIated (Homo sapiens, UniProt P00519, T315I)
T30 construct: purchased DiscoverX (scanMAX panel, contract assay)
Procedure: as §1, §2

MARK4 = target: T31, MARK4 (Homo sapiens, UniProt Q96L34)
T31 construct: purchased DiscoverX scanMAX kinase assay panel
Procedure: as §1, §2

CDKL2 = target: T32, CDKL2 (Homo sapiens, UniProt Q92772)
T32 construct: purchased DiscoverX (scanMAX panel, contract assay)
Procedure: as §1, §2

ULK2 = target: T33, ULK2 (Homo sapiens, UniProt Q8IYT8)
T33 construct: purchased DiscoverX
Procedure: as §1, §2

DMPK = target: T34, DMPK (Homo sapiens, UniProt Q09013)
T34 construct: purchased DiscoverX scanMAX kinase assay panel
Procedure: as §1, §2

TAOK3 = target: T35, TAOK3 (Homo sapiens, UniProt Q9H2K8)
T35 construct: purchased DiscoverX
Procedure: as §1, §2

T35 sequence (Q9H2K8 whole entry): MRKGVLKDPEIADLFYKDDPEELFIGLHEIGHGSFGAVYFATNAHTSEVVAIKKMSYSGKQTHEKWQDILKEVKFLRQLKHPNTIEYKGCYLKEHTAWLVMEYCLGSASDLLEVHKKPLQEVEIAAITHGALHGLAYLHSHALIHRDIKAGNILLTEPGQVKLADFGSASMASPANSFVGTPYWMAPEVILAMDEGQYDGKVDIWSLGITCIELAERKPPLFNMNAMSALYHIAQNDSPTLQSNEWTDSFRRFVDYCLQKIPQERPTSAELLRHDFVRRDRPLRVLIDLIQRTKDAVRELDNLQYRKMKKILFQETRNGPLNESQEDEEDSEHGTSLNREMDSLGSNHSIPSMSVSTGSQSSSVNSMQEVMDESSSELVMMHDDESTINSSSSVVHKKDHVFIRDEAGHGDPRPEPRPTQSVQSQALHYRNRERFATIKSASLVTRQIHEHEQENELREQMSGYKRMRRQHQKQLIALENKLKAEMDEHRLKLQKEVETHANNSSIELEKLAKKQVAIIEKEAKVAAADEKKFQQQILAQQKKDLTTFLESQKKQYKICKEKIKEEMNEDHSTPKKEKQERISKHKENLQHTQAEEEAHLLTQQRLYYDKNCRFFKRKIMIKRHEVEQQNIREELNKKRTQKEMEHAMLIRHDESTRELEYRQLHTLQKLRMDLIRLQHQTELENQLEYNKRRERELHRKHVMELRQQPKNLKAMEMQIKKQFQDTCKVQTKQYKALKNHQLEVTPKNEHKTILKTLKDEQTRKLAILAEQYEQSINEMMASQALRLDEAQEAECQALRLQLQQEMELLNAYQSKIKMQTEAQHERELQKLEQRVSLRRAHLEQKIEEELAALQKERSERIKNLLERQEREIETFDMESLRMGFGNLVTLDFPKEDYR
T31 sequence (Q96L34 whole entry): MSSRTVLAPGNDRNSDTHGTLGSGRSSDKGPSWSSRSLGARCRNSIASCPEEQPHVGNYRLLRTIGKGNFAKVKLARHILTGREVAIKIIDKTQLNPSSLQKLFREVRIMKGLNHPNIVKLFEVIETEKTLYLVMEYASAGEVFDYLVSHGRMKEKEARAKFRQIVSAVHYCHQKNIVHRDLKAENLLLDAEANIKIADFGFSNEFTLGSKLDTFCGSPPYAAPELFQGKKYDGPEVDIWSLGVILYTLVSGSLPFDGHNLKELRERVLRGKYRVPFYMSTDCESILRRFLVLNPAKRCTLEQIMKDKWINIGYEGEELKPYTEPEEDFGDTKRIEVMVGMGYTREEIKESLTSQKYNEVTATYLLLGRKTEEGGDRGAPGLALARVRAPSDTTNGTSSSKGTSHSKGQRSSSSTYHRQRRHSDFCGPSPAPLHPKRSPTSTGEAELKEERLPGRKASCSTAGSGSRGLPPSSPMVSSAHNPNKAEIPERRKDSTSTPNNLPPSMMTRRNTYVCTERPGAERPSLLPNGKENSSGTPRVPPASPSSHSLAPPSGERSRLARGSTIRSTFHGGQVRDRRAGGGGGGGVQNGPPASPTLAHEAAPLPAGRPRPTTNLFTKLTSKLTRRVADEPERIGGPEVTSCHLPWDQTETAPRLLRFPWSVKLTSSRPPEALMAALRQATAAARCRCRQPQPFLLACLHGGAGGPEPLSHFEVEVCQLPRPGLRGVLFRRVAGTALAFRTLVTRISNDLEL
T29 sequence (Q12866 21-999): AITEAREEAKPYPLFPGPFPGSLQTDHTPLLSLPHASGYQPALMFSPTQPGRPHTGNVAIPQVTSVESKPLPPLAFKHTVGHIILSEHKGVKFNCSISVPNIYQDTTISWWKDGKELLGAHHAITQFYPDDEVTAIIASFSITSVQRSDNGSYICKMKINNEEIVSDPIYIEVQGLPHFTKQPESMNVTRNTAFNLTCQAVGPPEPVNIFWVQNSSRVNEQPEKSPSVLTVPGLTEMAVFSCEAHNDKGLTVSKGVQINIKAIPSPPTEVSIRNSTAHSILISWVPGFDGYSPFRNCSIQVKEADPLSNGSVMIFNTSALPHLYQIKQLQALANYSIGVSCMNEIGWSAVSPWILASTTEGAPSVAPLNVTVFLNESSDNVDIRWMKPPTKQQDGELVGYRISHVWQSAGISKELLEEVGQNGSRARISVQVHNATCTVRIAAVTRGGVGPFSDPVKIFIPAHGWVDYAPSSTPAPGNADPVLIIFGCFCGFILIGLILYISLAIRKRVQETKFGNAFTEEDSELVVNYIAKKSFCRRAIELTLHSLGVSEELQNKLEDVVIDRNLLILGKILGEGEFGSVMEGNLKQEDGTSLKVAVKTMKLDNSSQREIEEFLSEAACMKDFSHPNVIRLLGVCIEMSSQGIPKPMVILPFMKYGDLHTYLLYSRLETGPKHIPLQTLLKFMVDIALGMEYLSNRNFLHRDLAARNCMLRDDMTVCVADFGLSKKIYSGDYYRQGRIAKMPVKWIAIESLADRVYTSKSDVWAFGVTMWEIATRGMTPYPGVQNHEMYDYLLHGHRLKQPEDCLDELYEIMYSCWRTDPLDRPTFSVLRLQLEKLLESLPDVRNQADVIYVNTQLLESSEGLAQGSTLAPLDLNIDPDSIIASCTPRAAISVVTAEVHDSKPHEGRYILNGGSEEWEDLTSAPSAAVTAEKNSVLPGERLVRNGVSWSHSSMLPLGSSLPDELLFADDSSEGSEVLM
T34 sequence (Q09013 whole entry): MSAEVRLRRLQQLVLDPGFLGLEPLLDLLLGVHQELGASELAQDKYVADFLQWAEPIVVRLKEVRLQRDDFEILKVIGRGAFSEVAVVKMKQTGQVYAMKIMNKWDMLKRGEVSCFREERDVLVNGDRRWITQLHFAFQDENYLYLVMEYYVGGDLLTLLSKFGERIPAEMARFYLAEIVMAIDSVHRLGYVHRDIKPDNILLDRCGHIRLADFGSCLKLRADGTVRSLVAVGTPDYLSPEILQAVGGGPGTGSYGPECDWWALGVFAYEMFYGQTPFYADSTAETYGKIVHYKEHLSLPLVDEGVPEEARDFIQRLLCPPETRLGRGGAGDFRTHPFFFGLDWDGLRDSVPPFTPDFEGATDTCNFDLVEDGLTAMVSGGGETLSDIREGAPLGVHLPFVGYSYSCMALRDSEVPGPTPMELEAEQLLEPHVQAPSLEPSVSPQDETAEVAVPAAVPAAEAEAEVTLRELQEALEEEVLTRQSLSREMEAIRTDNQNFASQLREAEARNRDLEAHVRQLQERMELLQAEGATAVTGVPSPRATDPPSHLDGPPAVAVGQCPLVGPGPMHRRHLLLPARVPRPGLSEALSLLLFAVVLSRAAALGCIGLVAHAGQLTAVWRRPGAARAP
T28 sequence (Q08881 whole entry): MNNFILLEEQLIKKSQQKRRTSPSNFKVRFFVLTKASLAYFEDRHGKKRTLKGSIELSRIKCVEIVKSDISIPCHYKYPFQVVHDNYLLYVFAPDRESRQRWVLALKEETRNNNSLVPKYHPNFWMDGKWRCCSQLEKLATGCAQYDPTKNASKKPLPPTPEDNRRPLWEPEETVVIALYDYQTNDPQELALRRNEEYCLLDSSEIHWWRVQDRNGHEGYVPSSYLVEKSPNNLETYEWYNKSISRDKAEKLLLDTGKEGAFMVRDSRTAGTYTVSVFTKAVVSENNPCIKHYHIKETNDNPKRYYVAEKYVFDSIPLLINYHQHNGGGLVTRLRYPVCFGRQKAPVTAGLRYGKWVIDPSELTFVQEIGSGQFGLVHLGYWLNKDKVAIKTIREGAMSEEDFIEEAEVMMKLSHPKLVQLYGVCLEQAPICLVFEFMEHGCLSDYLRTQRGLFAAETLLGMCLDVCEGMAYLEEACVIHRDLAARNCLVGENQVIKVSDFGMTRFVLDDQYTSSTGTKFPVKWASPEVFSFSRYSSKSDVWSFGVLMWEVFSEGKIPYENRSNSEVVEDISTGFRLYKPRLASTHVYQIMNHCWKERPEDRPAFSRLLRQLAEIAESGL
T18 sequence (P51451 whole entry): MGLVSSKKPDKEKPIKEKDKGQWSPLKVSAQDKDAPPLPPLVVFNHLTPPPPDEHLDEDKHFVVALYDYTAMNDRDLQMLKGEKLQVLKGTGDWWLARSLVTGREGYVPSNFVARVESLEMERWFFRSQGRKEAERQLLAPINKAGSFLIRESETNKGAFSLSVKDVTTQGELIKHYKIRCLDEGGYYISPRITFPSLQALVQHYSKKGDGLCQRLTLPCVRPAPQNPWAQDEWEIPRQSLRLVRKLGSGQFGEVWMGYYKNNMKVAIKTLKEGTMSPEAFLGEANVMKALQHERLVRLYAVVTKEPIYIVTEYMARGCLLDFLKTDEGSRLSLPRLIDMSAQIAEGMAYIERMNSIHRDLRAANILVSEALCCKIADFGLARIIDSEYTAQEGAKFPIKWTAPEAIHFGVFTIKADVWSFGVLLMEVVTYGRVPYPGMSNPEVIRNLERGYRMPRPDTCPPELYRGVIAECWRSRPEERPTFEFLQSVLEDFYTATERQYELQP
T4 sequence (Q9Y616 whole entry): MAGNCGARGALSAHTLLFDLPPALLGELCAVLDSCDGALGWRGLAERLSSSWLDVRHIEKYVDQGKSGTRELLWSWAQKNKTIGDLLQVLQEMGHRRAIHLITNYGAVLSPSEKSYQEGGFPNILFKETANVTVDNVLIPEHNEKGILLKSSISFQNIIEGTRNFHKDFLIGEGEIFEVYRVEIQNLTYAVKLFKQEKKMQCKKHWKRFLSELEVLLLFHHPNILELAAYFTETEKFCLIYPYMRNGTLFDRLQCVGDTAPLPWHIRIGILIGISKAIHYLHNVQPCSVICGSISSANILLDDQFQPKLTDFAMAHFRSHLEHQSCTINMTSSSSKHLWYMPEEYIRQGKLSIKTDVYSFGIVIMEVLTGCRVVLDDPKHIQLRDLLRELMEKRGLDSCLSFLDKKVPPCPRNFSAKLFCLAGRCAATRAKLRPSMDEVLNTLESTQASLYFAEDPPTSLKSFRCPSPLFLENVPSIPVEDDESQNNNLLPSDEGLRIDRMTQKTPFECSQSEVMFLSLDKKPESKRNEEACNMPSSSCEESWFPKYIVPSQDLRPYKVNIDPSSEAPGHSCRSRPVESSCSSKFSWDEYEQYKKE

CN1CCN(c2ccc(Nc3nc(N4OCC[C@H]4c4ccccc4)c4cc[nH]c4n3)cc2)CC1 [Example 74, (S)-N-(4-(4-methylpiperazin-1-yl)phenyl)-4-(3-phenylisoxazolidin-2-yl)-7H-pyrrolo[2,3-d]pyrimidin-2-amine]
remaining binding at 1 µM (FLT3(N841I)): 0.3%
remaining binding at 1 µM (PIP5K2C): 26%
remaining binding at 1 µM (JNK2): 29%
remaining binding at 1 µM (IRAK3): 24%
remaining binding at 1 µM (BIKE): 1.8%
remaining binding at 1 µM (RIOK3): 3.6%
remaining binding at 1 µM (JNK1): 2.7%
remaining binding at 1 µM (GRK4): 9.3%
remaining binding at 1 µM (LRRK2(G2019S)): 25%
remaining binding at 1 µM (RIOK1): 5.5%
remaining binding at 1 µM (MAP3K3): 25%
remaining binding at 1 µM (MELK): 2%
remaining binding at 1 µM (ULK3): 13%
remaining binding at 1 µM (TRKA): 1.1%
remaining binding at 1 µM (ALK): 31%
remaining binding at 1 µM (MAP4K3): 13%
remaining binding at 1 µM [1]: 24%
remaining binding at 1 µM (BLK): 19%
remaining binding at 1 µM (KIT(L576P)): 31%
remaining binding at 1 µM (RET): 20%
remaining binding at 1 µM (FLT3(D835H)): 21%
remaining binding at 1 µM [2]: 0%
remaining binding at 1 µM (RET(M918T)): 20%
remaining binding at 1 µM [3]: 0%
remaining binding at 1 µM (CDK7): 21%
remaining binding at 1 µM (HPK1): 0.85%
remaining binding at 1 µM (PRP4): 20%
remaining binding at 1 µM (ITK): 5.1%
remaining binding at 1 µM (MERTK): 29%
remaining binding at 1 µM [4]: 8.4%
remaining binding at 1 µM (MARK4): 18%
remaining binding at 1 µM (CDKL2): 8.2%
remaining binding at 1 µM (ULK2): 2.5%
remaining binding at 1 µM (DMPK): 0.65%
remaining binding at 1 µM (TAOK3): 22%
